Assays:
SSTR1 = target: T1, SSTR1 (Homo sapiens, UniProt P30872); test: SSTR1 I-125 somatostatin competition binding assay for selectivity versus SSTR1 (CHO-K1 membranes); settings: competition with I-125 somatostatin, membranes from CHO-K1 overexpressing SSTR1; read-out: SSTR1 Binding pIC50 (converted)
T1 construct: purchased Perkin Elmer ES-520-M400UA; host or cells: CHO-K1 membranes
How it was run: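 Competition binding used 10 μg CHO-K1 SSTR1 membranes and I-125 somatostatin, 0.4 nM in the compound mix before membranes were added. Buffer was 25 mM HEPES pH 7.4, 10 mM MgCl2, 1 mM CaCl2, 0.5% BSA. After 60 min at room temperature, bound tracer was filtered onto PEI-soaked filters and counted by scintillation; values are pIC50.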

SSTR4 [1] = target: T2, SSTR4 (Homo sapiens, UniProt P31391); test: Inhibition of forskolin stimulated cAMP in CHO-K1 cells overexpressing SSTR4; format: cell-based; settings: read-out: SSTR4 Activity pEC50 (converted)
T2 construct: host or cells: CHO-K1
How it was run: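 CHO-K1 cells overexpressing SSTR4 treated 30 min at room temperature with compound in Krebs Ringer buffer containing 0.5% BSA, 300 μM IBMX and 350 nM forskolin. Intracellular cAMP measured by HTRF LANCE Ultra (665/615 nm); pEC50 values reported.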

SSTR4 [2] = target: T2, SSTR4; test: SSTR4 I-125 somatostatin competition binding assay (CHO-K1 membranes); settings: competition with I-125 somatostatin, membranes from CHO-K1 overexpressing SSTR4; read-out: SSTR4 Binding pIC50 (converted)
How it was run: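 CHO-K1 membranes overexpressing SSTR4 (1 μg/well) were incubated 60 min at room temperature with compound and I-125 somatostatin (0.2 nM in the compound mix) in 25 mM HEPES pH 7.4, 10 mM MgCl2, 1 mM CaCl2, 0.5% BSA. Bound radioligand was collected on PEI-soaked filters and scintillation-counted, with results reported as pIC50.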

T2 sequence (P31391 whole entry): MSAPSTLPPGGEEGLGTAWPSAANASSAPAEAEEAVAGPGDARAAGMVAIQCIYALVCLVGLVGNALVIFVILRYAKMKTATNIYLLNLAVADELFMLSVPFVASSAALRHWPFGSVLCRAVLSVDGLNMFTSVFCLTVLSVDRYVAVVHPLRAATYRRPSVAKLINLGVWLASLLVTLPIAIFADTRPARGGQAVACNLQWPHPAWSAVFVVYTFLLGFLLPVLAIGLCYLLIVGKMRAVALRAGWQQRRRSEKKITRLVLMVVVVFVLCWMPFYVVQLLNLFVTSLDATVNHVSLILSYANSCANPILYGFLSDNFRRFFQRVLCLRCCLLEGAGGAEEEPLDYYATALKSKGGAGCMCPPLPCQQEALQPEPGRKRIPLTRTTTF
T1 sequence (P30872 whole entry): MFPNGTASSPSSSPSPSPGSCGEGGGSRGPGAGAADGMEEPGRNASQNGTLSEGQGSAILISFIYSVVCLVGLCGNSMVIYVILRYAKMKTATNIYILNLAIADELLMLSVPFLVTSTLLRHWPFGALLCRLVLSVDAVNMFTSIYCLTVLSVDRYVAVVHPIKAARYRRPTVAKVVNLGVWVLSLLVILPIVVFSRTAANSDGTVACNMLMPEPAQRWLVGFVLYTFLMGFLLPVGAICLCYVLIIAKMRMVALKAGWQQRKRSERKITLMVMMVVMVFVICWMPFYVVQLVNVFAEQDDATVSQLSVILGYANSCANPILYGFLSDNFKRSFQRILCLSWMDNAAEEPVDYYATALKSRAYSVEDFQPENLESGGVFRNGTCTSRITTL

SMILES	IC50 (SSTR1)	EC50 (SSTR4 [1])	IC50 (SSTR4 [2])
Cc1cccc(C(C)(C)NC(=O)C[C@@H]2CCCN2C)c1C [Example 92, (S)-N-(2-(2,3-dimethylphenyl)propan-2-yl)-2-(1-methylpyrrolidin-2-yl)acetamide]	> 50.1 µM	0.0631 µM	1 µM
CN1CCC[C@@H]1CC(=O)NC(C)(C)c1cccc(F)c1Cl [Example 94, (R)-N-(2-(2-chloro-3-fluorophenyl)propan-2-yl)-2-(1-methylpyrrolidin-2-yl)acetamide]	> 50.1 µM	0.0631 µM	0.398 µM
CN1CCC[C@@H]1CC(=O)NC(C)(C)c1cccc(Cl)c1Cl [Example 96, (R)-N-(2-(2,3-dichlorophenyl)propan-2-yl)-2-(1-methylpyrrolidin-2-yl)acetamide]	15.8 µM	0.0158 µM	0.2 µM
CC(C)(NC(=O)CC1NCCC1(F)F)c1nccc2ccccc12 (stereo not drawn) [Example 100, 2-(3,3-difluoropyrrolidin-2-yl)-N-(2-(isoquinolin-1-yl)propan-2-yl)acetamide]	> 50.1 µM	0.2 µM	1 µM
COc1c(Cl)cccc1C(C)(C)NC(=O)C[C@@H]1CCCN1C [Example 112, (S)-N-(2-(3-chloro-2-methoxyphenyl)propan-2-yl)-2-(1-methylpyrrolidin-2-yl)acetamide]	> 50.1 µM	0.0794 µM	0.501 µM
Cc1c(Cl)cccc1C(C)(C)NC(=O)C[C@H]1CCCN1C [Example 119, (R)-N-(2-(3-chloro-2-methylphenyl)propan-2-yl)-2-(1-methylpyrrolidin-2-yl)acetamide]	20 µM	0.0158 µM	0.251 µM
CC(CN1CCC1)C(=O)NC(C)(C)c1ccccc1Cl (stereo not drawn) [Example 132, 3-(azetidin-1-yl)-N-(2-(2-chlorophenyl)propan-2-yl)-2-methylpropanamide]	20 µM	0.00794 µM	0.0794 µM
CN1CCC[C@H]1CC(=O)NC(C)(C)c1ccccc1F [Example 160, (S)-N-(2-(2-fluorophenyl)propan-2-yl)-2-(1-methylpyrrolidin-2-yl)acetamide]	> 50.1 µM	0.158 µM	1 µM
Cc1cccc(C(C)(C)NC(=O)CCN2CCC2)c1Cl [Example 161, 3-(azetidin-1-yl)-N-(2-(2-chloro-3-methylphenyl)propan-2-yl)propanamide]	6.31 µM	0.00398 µM	0.0501 µM
Cc1cccc(C(C)(C)NC(=O)CCN2CCC2)c1 [Example 162, 3-(azetidin-1-yl)-N-(2-(m-tolyl)propan-2-yl)propanamide]	25.1 µM	0.00794 µM	0.0794 µM
CC(C)(NC(=O)CCN1CCC1)c1cccc(F)c1 [Example 163, 3-(azetidin-1-yl)-N-(2-(3-fluorophenyl)propan-2-yl)propanamide]	> 50.1 µM	0.0251 µM	0.398 µM
CC(C)(NC(=O)CCN1CCC1)c1cccc(Cl)c1 [Example 164, 3-(azetidin-1-yl)-N-(2-(3-chlorophenyl)propan-2-yl)propanamide]	31.6 µM	0.0126 µM	0.0398 µM
CC(C)(NC(=O)CCN1CCC1)c1ccc(Cl)cc1 [Example 165, 3-(azetidin-1-yl)-N-(2-(4-chlorophenyl)propan-2-yl)propanamide]	25.1 µM	0.01 µM	0.0794 µM
Cc1c(F)cccc1C(C)(C)NC(=O)CCN1CCC1 [Example 166, 3-(azetidin-1-yl)-N-(2-(3-fluoro-2-methylphenyl)propan-2-yl)propanamide]	39.8 µM	0.0126 µM	0.0501 µM
O=C(CCN1CCC1)NC(c1cc(F)ccc1F)C(F)F (stereo not drawn) [Example 167, 3-(azetidin-1-yl)-N-(1-(2,5-difluorophenyl)-2,2-difluoroethyl)propanamide]	> 50.1 µM	0.0251 µM	0.251 µM
CC(C)[C@@H](CN1CCC1)C(=O)N[C@@H](c1ccccc1)C(F)F [Example 178, (S)-2-(azetidin-1-ylmethyl)-N-((S)-2,2-difluoro-1-phenylethyl)-3-methylbutanamide]	6.31 µM	0.0398 µM	0.0398 µM
CC[C@@H](CN1CCC1)C(=O)N[C@H](c1ccccc1)C(F)F [Example 180, (S)-2-(azetidin-1-ylmethyl)-N-((R)-2,2-difluoro-1-phenylethyl)butanamide]	0.631 µM	0.000126 µM	0.00316 µM
COc1ccccc1[C@@H](NC(=O)[C@H](CN1CCC1)C(C)C)C(F)F [Example 188, (S)-2-(azetidin-1-ylmethyl)-N-((R)-2,2-difluoro-1-(2-methoxyphenyl)ethyl)-3-methylbutanamide]	0.126 µM	0.000501 µM	0.002 µM
CC(C)[C@@H](CN1CCC1)C(=O)N[C@H](c1cccc(F)c1)C(F)F [Example 194, (S)-2-(azetidin-1-ylmethyl)-N-((R)-2,2-difluoro-1-(3-fluorophenyl)ethyl)-3-methylbutanamide]	0.631 µM	0.000794 µM	0.00251 µM
O=C(CCN1CCC1)N[C@H](c1cccc(Cl)c1)C(F)F [Example 202, (R)-3-(azetidin-1-yl)-N-(1-(3-chlorophenyl)-2,2-difluoroethyl)propanamide]	6.31 µM	0.000794 µM	0.02 µM

Other lines, results leading:

IC50 (SSTR1)	EC50 (SSTR4 [1])	IC50 (SSTR4 [2])	SMILES
20 µM	0.0251 µM	0.316 µM	CN1CCC[C@H]1CC(=O)NC(C)(C)c1cccc(Cl)c1Cl [Example 80, (S)-N-(2-(2,3-dichlorophenyl)propan-2-yl)-2-(1-methylpyrrolidin-2-yl)acetamide]
39.8 µM	0.0631 µM	0.398 µM	Cc1cccc(C(C)(C)NC(=O)C[C@@H]2CCCN2C)c1Cl [Example 88, (S)-N-(2-(2-chloro-3-methylphenyl)propan-2-yl)-2-(1-methylpyrrolidin-2-yl)acetamide]
25.1 µM	0.0398 µM	0.398 µM	Cc1cccc(C(C)(C)NC(=O)C[C@H]2CCCN2C)c1Cl [Example 91, (R)-N-(2-(2-chloro-3-methylphenyl)propan-2-yl)-2-(1-methylpyrrolidin-2-yl)acetamide]
> 50.1 µM	0.1 µM	0.631 µM	Cc1cccc2c(C(C)(C)NC(=O)CC3NCCC3(F)F)nccc12 (stereo not drawn) [Example 101, 2-(3,3-difluoropyrrolidin-2-yl)-N-(2-(5-methylisoquinolin-1-yl)propan-2-yl)acetamide]
39.8 µM	0.1 µM	2 µM	Cc1cccc(OCC(C)(C)NC(=O)C[C@@H]2CCCN2C)n1 [Example 104, (S)-N-(2-methyl-1-((6-methylpyridin-2-yl)oxy)propan-2-yl)-2-(1-methylpyrrolidin-2-yl)acetamide]
39.8 µM	0.0794 µM	0.398 µM	Cc1c(Cl)cccc1C(C)(C)NC(=O)C[C@@H]1CCCN1C [Example 118, (S)-N-(2-(3-chloro-2-methylphenyl)propan-2-yl)-2-(1-methylpyrrolidin-2-yl)acetamide]
15.8 µM	0.01 µM	0.158 µM	CC(CN1CCCC1)C(=O)NC(C)(C)c1ccccc1Cl (stereo not drawn) [Example 135, N-(2-(2-chlorophenyl)propan-2-yl)-2-methyl-3-(pyrrolidin-1-yl)propanamide]
5.01 µM	0.000794 µM	0.0251 µM	COc1c(F)cccc1C(C)(C)NC(=O)C(C)CN1CCC1 (stereo not drawn) [Example 170, 3-(azetidin-1-yl)-N-(2-(3-fluoro-2-methoxyphenyl)propan-2-yl)-2-methylpropanamide]
> 50.1 µM	0.02 µM	0.2 µM	Cc1ccc(C(CF)NC(=O)CCN2CCC2)cc1 (stereo not drawn) [Example 173, 3-(azetidin-1-yl)-N-(2-fluoro-1-(p-tolyl)ethyl)propanamide]
0.251 µM	0.0002 µM	0.002 µM	CC(C)[C@@H](CN1CCC1)C(=O)N[C@H](c1ccccc1)C(F)F [Example 179, (S)-2-(azetidin-1-ylmethyl)-N-((R)-2,2-difluoro-1-phenylethyl)-3-methylbutanamide]
0.631 µM	0.001 µM	0.00794 µM	CC[C@@H](CN1CCC1)C(=O)N[C@H](c1ccccc1OC)C(F)F [Example 189, (S)-2-(azetidin-1-ylmethyl)-N-((R)-2,2-difluoro-1-(2-methoxyphenyl)ethyl)butanamide]
1 µM	0.002 µM	0.00251 µM	CC[C@@H](CN1CCC1)C(=O)N[C@H](c1cccc(F)c1)C(F)F [Example 195, (S)-2-(azetidin-1-ylmethyl)-N-((R)-2,2-difluoro-1-(3-fluorophenyl)ethyl)butanamide]
0.501 µM	0.0002 µM	0.00316 µM	CC(C)[C@@H](CN1CCC1)C(=O)N[C@H](c1ccc(F)cc1)C(F)F [Example 196, (S)-2-(azetidin-1-ylmethyl)-N-((R)-2,2-difluoro-1-(4-fluorophenyl)ethyl)-3-methylbutanamide]
